According to paper PMC4596527 (Bioorganic & medicinal chemistry, 2010):
Marks after values point to notes of the source that are not given here.

Experiments:
[1] = tested on: myocite; conditions: exposure to hypoxantine and xantine oxidase; cited from earlier work
[2] = tested on: Langendorff-perfused heart; conditions: attributed to activation of Akt and ERK1/2 pathways; cited from earlier work
[3] = tested on: Chinese hamster ovary (CHO) cells; experiment: MTT cell viability, protection against H2O2-mediated cytotoxicity in CHO cells; conditions: for Cytotoxicity CHO (%): 50 μM compound for 2 h, then 1mM H2O2 for 1 h, MTT
[4] = tested on: reperfused myocardium; conditions: in vivo I/R injury; cited from earlier work
[5] = Superoxide radical scavenging by EPR spin trapping; conditions: PBS pH 7.4
[6] = tested on: human aortic vascular smooth muscle cells (HSMCs); experiment: MTT cell viability, protection against H2O2-mediated cytotoxicity in HSMC cells; conditions: 50 μM compound for 2 h, then 1mM H2O2 for 1 h
[7] = 1-mM compound in presence of 1-mM DEPMPO
[8] = 100-μM compound in presence of 1-mM DEPMPO

Row | Compound | protection of CHO cells against H2O2 compared with verapamil (in words) [3] | Cytotoxicity CHO (%) [3] | Superoxide Scavenging (%) [5, 7] | Cytotoxicity HSMC (%) [6] | also measured
1 | COc1ccc(CCN(C)CCCC(C#N)(c2ccc(OC)c(OC)c2)C(C)C)cc1OC (stereo not shown) [Compound 1, verapamil] |  |  |  |  | myocite viability [1]: preserved; oxidative damage during ischemia and reperfusion [2]: decreased oxidative damage
2 | COc1ccc(CCN(C)CCCC(CNC(=O)C2=CC(C)(C)N(O)C2(C)C)(c2ccc(OC)c(OC)c2)C(C)C)cc1OC.Cl (stereo not shown) [Compound 12B] | good protection |  |  |  | 
3 | COc1ccc(CCN(C)CCCC(CNC(=O)C2=CC(C)(C)N(O)C(C)(C)C2)(c2ccc(OC)c(OC)c2)C(C)C)cc1OC.Cl (stereo not shown) [Compound 16B] | good protection |  |  |  | Akt and Bcl-2 levels in reperfused myocardium [4]: enhanced; nitric oxide generation in reperfused myocardium [4]: increased; superoxide production in reperfused myocardium [4]: markedly attenuated
4 | COc1ccc(CCN(C)CCCC(CNC(=O)C2CC(C)(C)N(O)C(C)(C)C2)(c2ccc(OC)c(OC)c2)C(C)C)cc1OC.Cl (stereo not shown) [Compound 17B] | good protection |  |  |  | 
5 | COc1ccc(CCN(CCCC(C#N)(c2ccc(OC)c(OC)c2)C(C)C)CC2=CC(C)(C)NC2(C)C)cc1OC (stereo not shown) [Compound 23A, 2-(3,4-Dimethoxyphenyl)-5-[[2-(3,4-dimethoxyphenyl)ethyl]-(2,2,5,5-tetramethyl-2,5-dihydro-1H-pyrrol-3-ylmethyl)-amino]-2-isopropyl-pentanenitrile] |  | 74.0 ± 3.4% | 70.6 ± 3.3 ^a % | 64.8 ± 7.1% | 
6 | COc1ccc(CCN(CCCC(C#N)(c2ccc(OC)c(OC)c2)C(C)C)CC2=CC(C)(C)N(O)C2(C)C)cc1OC.Cl (stereo not shown) [Compound 23B, 2-(3,4-Dimethoxyphenyl)-5-[[2-(3,4-dimethoxyphenyl)ethyl]-(1-hydroxy-2,2,5,5-tetramethyl-2,5-dihydro-1H-pyrrol-3-ylmethyl)-amino]-2-isopropyl-pentanenitrile HCl Salt] |  | 66.7 ± 3.0% | 100% | 58.6 ± 4.8% | Superoxide Scavenging (%) [5, 8]: 78.1±2.6%
7 | COc1ccc(CCN(CCCC(C#N)(c2ccc(OC)c(OC)c2)C(C)C)CC2=CC(C)(C)NC(C)(C)C2)cc1OC (stereo not shown) [Compound 24A, 2-(3,4-Dimethoxyphenyl)-5-[[2-(3,4-dimethoxyphenyl)ethyl]-(2,2,6,6-tetramethyl-1,2,3,6-tetrahydropyridin-4-ylmethyl)amino]-2-isopropyl-pentanenitrile] |  | 95.3 ± 0.5% | 68.2 ± 7.6 ^a % | 91.1 ± 0.5% | 
8 | COc1ccc(CCN(CCCC(C#N)(c2ccc(OC)c(OC)c2)C(C)C)CC2=CC(C)(C)N(O)C(C)(C)C2)cc1OC.Cl (stereo not shown) [Compound 24B, 2-(3,4-Dimethoxyphenyl)-5-[[2-(3,4-dimethoxyphenyl)ethyl]-(1-hydroxy-2,2,6,6-tetramethyl-1,2,3,6-tetrahydropyridin-4-ylmethyl)amino]-2-isopropyl-pentanenitrile HCl Salt] |  | 64.8 ± 5.6% | 100% | 57.2 ± 5.4% | Superoxide Scavenging (%) [5, 8]: 82.5±2.7%
9 | [4-Cyano-4-(3,4-dimethoxyphenyl)-5-methylhexyl]-[2-(3,4-dimethoxyphenyl)ethyl]-(1-oxyl-2,2,5,5-tetramethyl-2,5-dihydro-1H-pyrrol-3-ylmethyl)methylammonium Iodide Salt Radical [Compound 25] | good protection |  | 73.8 ± 3.0 ^a % |  | 
10 | [4-Cyano-4-(3,4-dimethoxyphenyl)-5-methylhexyl]-[2-(3,4-dimethoxyphenyl)ethyl]-(1-oxyl-2,2,6,6-tetramethyl-1,2,3,6-tetrahydropyridin-4-ylmethyl)methylammonium Iodide Salt Radical [Compound 26] |  |  | 48.1 ± 2.7 ^a % |  | 
